The subject of one test is SK-OV-3. Put plainly: CellTiter-Blue cell viability assay: SK-OV-3. It counts as cell-based. The settings on record: Homo sapiens, 5061DOX assay 2, 72 hour incubation. (The colour change of resazurin is a common sign of viable cells or microbes.)
The target of another test is T1, FAP (Mus musculus, UniProt P97321).
T1 construct: host or cells: HEK (human embryonic kidney) cells, stably transfected
T1 sequence (P97321 1-761): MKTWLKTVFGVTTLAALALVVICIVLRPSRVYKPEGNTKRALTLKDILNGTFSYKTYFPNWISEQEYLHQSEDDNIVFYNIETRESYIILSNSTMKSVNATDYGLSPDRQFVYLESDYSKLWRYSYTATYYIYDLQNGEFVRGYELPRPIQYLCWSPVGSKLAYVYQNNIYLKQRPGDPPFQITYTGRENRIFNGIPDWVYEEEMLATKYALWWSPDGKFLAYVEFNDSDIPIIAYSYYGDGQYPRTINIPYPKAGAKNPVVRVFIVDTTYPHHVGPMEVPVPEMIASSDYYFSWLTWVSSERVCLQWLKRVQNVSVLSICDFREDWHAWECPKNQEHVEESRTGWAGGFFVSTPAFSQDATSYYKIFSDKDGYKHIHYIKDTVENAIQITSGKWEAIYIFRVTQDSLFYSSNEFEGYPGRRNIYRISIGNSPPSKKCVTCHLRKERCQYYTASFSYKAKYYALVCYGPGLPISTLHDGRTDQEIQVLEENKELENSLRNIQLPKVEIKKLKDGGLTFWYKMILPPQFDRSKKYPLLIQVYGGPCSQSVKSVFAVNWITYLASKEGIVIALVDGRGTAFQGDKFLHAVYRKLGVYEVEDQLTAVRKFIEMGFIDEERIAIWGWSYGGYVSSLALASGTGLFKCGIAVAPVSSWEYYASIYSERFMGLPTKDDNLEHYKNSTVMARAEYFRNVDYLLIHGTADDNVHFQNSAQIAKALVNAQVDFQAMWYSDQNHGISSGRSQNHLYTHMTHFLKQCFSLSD
Nature of the test: Inhibition of FAP activity on HEK-mFAP cells. It counts as cell-based. The conditions noted are these: 5061DOX assay 3.

Another test concerns OVCAR-3. Put plainly: CellTiter-Blue cell viability assay: OVCAR-3. It counts as cell-based. The settings on record: Homo sapiens, 5061DOX assay 2, 72 hour incubation.
In the next test the test system is HEK-mFAP cells. Nature of the test: CellTiter-Blue cell viability assay with HEK-mFAP cells. It counts as cell-based, human.
For a further test, the system named is MCF-7. Put plainly: CellTiter-Blue cell viability assay: MCF-7. It counts as cell-based. The settings on record: Homo sapiens, MCF7, 5061DOX assay 2, 72 hour incubation.
In another test the test system is HEK-Mock cells. Nature of the test: CellTiter-Blue cell viability assay with HEK-Mock cells. It counts as cell-based. The conditions noted are these: Homo sapiens, 72 h.
Setting [1] is: read-out: EC50 (prodrug + 25 nM FAP).
[2] abbreviates: read-out: EC50 (prodrug + 100 uM 5057).
Setting [3] is: 5061DOX assay 2, 72 hour incubation, read-out: EC50 (prodrug alone).

Like-named read-outs stand apart in the source and are kept apart here.

With `COc1cccc2c1C(=O)c1c(O)c3c(c(O)c1C2=O)C[C@@](O)(C(=O)CO)C[C@@H]3OC1CC(NC(=O)[C@@H]2CCCN2C(=O)[C@@H](C)NC(=O)c2ccnc3cccc(Br)c23)C(O)C(C)O1` (some centres unmarked) [Compound 5061DOX], the EC50 (as a rule, the concentration that produces a half-maximal response) was 0.9 µM in the test on SK-OV-3 (setting [1]); > 100 µM in the test on SK-OV-3 (setting [2]); > 100 µM in the test on SK-OV-3 (read-out: EC50 (prodrug alone)); 1.5 µM in the test on OVCAR-3 (setting [1]); > 100 µM in the test with OVCAR-3 (setting [2]); > 100 µM in the test with OVCAR-3 (read-out: EC50 (prodrug alone)). Besides, the 50% effective concentration (EC50) with HEK-mFAP cells (5061DOX assay 2, 72 hour incubation, read-out: EC50 (prodrug + 100 uM 5057)) was > 100 µM; with HEK-mFAP cells (setting [3]), > 100 µM; in the test on HEK-mFAP cells (Homo sapiens, 5061DOX assay 1, 72 hour incubation, read-out: EC50 (prodrug + 100 uM 5057)) it was > 100 µM; with HEK-mFAP cells (Homo sapiens, 5061DOX assay 1, 72 hour incubation, read-out: EC50 (prodrug alone)), > 100 µM; in the test on MCF-7 (setting [1]), > 100 µM; in the test on MCF-7 (setting [2]), > 100 µM. Besides, the EC50 with MCF-7 (read-out: EC50 (prodrug alone)) was > 100 µM; with HEK-Mock cells (5061DOX assay 1, 72 hour incubation, read-out: EC50 (prodrug + 25 nM FAP)), 0.28 µM; with HEK-Mock cells (5061DOX assay 1, 72 hour incubation, read-out: EC50 (prodrug + 50 nM PREP)), > 100 µM; in the test on HEK-Mock cells (5061DOX assay 1, 72 hour incubation, read-out: EC50 (prodrug + 100 uM 5057)) it was > 100 µM; in the test on HEK-Mock cells (5061DOX assay 1, 72 hour incubation, read-out: EC50 (prodrug alone)), > 100 µM; with HEK-Mock cells (5061DOX assay 2, 72 hour incubation, read-out: EC50 (prodrug + 25 nM FAP)), 0.25 µM. The half-maximal effective concentration (EC50) in the test on HEK-Mock cells (setting [3]) was > 100 µM. Also, at FAP, the IC50 (as a rule, the concentration needed to halve the response being measured) was > 10 µM.

The values above are taken from patent US11925655B2, “FAP-activated therapeutic agents, and uses related thereto” (Bach Biosciences, LLC, priority 2014, dated 2024).
